Paper PMC11318101, “Fragment-Based Screen of SARS-CoV-2 Papain-like Protease (PL^pro)” (ACS Medicinal Chemistry Letters, 2024)

target: SARS-CoV-2 PLPro (full-length, intact C111) (Severe acute respiratory syndrome coronavirus 2, UniProt P0DTD1, C1833S); type: biochemical

| Compound | inhibition at 1 mM |
| --- | --- |
| Cn1ncc2c(Nc3ccccc3Cl)ncnc21 [Fragment 7] | 30% |
| CC(C)c1cc(O)n2ncc(-c3ccccc3)c2n1 [Fragment 8] | 62% |
| Cc1cc(Nc2ccccc2C)n2ncnc2n1 [Fragment 9] | 5% |
| Cc1ccc(Nc2cc(C)nc3nncn23)c(C)c1 [Fragment 11] | 2% |
